Laboratory results as given in patent US20090148398A1, “Naturally Occurring Volatile Attractant” (priority 2007, published 2009).
“Also recorded” adds a separate entry of the source.

Tests used:
[1] = tested on: fire ant workers; assay: Fire ant alarm response; design: species or system Solenopsis invicta; settings: in vivo
Description: Recently, the identity of a component of the fire ant alarm pheromone was determined to be 2-ethyl, 3,6-dimethyl pyrazine and the origin is the mandibular gland. […] In addition, 2-ethyl, 3,6-dimethyl pyrazine is commercially available as a mixture with the related compound, 2-ethyl, 3,5-dimethyl pyrazine.

[2] = tested on: S. invicta workers; assay: Y-tube olfactometer attraction bioassay; design: species or system Solenopsis invicta; settings: in vivo
Text: All ants used in these experiments were obtained from mature, queenright, monogyne Solenopsis invicta colonies excavated from a known monogyne site in Gainesville, Fla. The colonies were separated from the dirt and set up in the laboratory at least one month prior to the experiments. Laboratory colonies were maintained on a diet of crickets, water and 10% sucrose, and kept in plastic trays (83×53×13 cm) whose inner sides were painted with poly tetrafluoroethylene compositions (ADI Fluon, ICI Americas, Bayonne, NF) to prevent, escape of the ants. Based on the above, the attraction of S. invicta workers to various concentrations of the commercially available mixture of 2-ethyl, 3,5-dimethyl pyrazine and 2-ethyl, 3,6-dimethyl pyrazine was evaluated using a Y-tube olfactometer (FIG. 5). The olfactometer is composed of two 24/40 ground glass joints 14 each ring sealed to one of the arms 24 of an approximately 5 cm Y-tube 26 such that about 1 cm of each Y-tube extends through the male half of one of the ground glass joints. An approximately 5 cm piece of about 0.6 cm tubing is ring sealed about 1 cm into the female half of the ground glass joints. […] The number of ants entering the chamber with either the control or the treatment during the 3 min were counted and recorded. […]

**Q.** For `CCc1ncc(C)nc1C` [2-ethyl, 3,5-dimethyl pyrazine], which “alarm response of fire ant workers” value [1] is on record?
**A.** The value was “elicit an alarm response”.

**Q.** What does the source list for `CCc1nc(C)cnc1C` [2-ethyl, 3,6-dimethyl pyrazine]?
**A.** attraction of fire ant workers (conclusion of olfactometer experiment) [2]: attracts fire ant workers through space; alarm response of fire ant workers [1]: elicited the full range of previously reported fire ant alarm behaviors; also recorded: fire ant workers responded better
